Literature values in patent US20250255842A1, “S[…]-RESOLVING LIPID MEDIATORS FOR TREATING LONG COVID-19” (Solutex GC, S.L., priority 2022, published 2025).

System: thrombus
Settings: administration of RvD4; less neutrophil infiltration, more pro-resolving monocytes

CC/C=C\C[C@H](O)/C=C/C=C\C\C=C/C=C/C=C/[C@@H](O)[C@@H](O)CCC(=O)O [RvD4, 4S,5R,17S-trihydroxy-6E,8E,10Z,13Z,15E,19Z-docosahexaenoic acid]
Thrombus burden: significantly reduced
